Laboratory results: the supplement of paper PMC10307832

Assays:
Test in all cases: relative viability (nuclei count vs DMSO), 5 days (fraction); higher = more cells survive
[1] = system: NCI-H520
Method in brief: (§1)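 Cells from lung cancer lines were seeded into 1536-well plates and, one day later, dosed by pin tool. Treatments were either a single drug or a fixed dose of an anchor drug with five library-drug doses (not always all listed) in √10 steps. After 5 days, nuclei were stained in a one-step fixation (final 0.05% Triton X-100, 1% formaldehyde, 1 ug/ml Hoechst) and counted on 4× images, and relative viability is the treated-to-vehicle nuclei ratio, as the median of duplicate plates.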

[2] = system: NCI-H460
Method in brief: as §1

[3] = system: PC-3 [JPC-3]
Method in brief: as §1

[4] = system: NCI-H1915
Method in brief: as §1

[5] = system: NCI-H661
Method in brief: as §1

[6] = system: BEN
Method in brief: as §1

[7] = system: CAL-12T
Method in brief: as §1

[8] = system: NCI-H727
Method in brief: as §1

[9] = system: NCI-H650
Method in brief: as §1

[10] = system: NCI-H2023
Method in brief: as §1

[11] = system: LCLC-97TM1
Method in brief: as §1

[12] = system: NCI-H1650
Method in brief: as §1

[13] = system: NCI-H1944
Method in brief: as §1

[14] = system: NCI-H1651
Method in brief: as §1

[15] = system: LC-2-ad
Method in brief: as §1

[16] = system: NCI-H596
Method in brief: as §1

[17] = system: H3255
Method in brief: as §1

[18] = system: NCI-H2087
Method in brief: as §1

[19] = system: ABC-1
Method in brief: as §1

[20] = system: A-427
Method in brief: as §1

[21] = system: NCI-H441
Method in brief: as §1

[22] = system: 201T
Method in brief: as §1

Compound: CC(=O)O[C@@]12CO[C@@H]1C[C@H](O)[C@@]1(C)C(=O)[C@H](O)C3=C(C)[C@@H](OC(=O)[C@H](O)[C@@H](NC(=O)OC(C)(C)C)c4ccccc4)C[C@@](O)([C@@H](OC(=O)c4ccccc4)[C@H]21)C3(C)C [Docetaxel] + O=C(CCCCCCC(=O)Nc1ccccc1)NO [Vorinostat] (partner 1 µM)
- relative viability ([1]; first compound 0.0002 µM): 0.714
- relative viability ([1]; first compound 0.000632 µM): 0.463
- relative viability ([1]; first compound 0.002 µM): 0.281
- relative viability ([1]; first compound 0.006325 µM): 0.187
- relative viability ([1]; first compound 0.02 µM): 0.158
- relative viability ([2]; first compound 0.0002 µM): 0.637
- relative viability ([2]; first compound 0.000632 µM): 0.349
- relative viability ([2]; first compound 0.002 µM): 0.0613
- relative viability ([2]; first compound 0.006325 µM): 0.0388
- relative viability ([2]; first compound 0.02 µM): 0.0166
- relative viability ([3]; first compound 0.0002 µM): 0.673
- relative viability ([3]; first compound 0.000632 µM): 0.58
- relative viability ([3]; first compound 0.002 µM): 0.395
- relative viability ([3]; first compound 0.006325 µM): 0.343
- relative viability ([3]; first compound 0.02 µM): 0.21
- relative viability ([4]; first compound 0.0002 µM): 0.531
- relative viability ([4]; first compound 0.000632 µM): 0.258
- relative viability ([4]; first compound 0.002 µM): 0.316
- relative viability ([4]; first compound 0.006325 µM): 0.174
- relative viability ([4]; first compound 0.02 µM): 0.0863
- relative viability ([5]; first compound 0.0002 µM): 0.777
- relative viability ([5]; first compound 0.000632 µM): 0.856
- relative viability ([5]; first compound 0.002 µM): 0.728
- relative viability ([5]; first compound 0.006325 µM): 0.493
- relative viability ([5]; first compound 0.02 µM): 0.373
- relative viability ([6]; first compound 0.0002 µM): 0.526
- relative viability ([6]; first compound 0.000632 µM): 0.526
- relative viability ([6]; first compound 0.002 µM): 0.337
- relative viability ([6]; first compound 0.006325 µM): 0.373
- relative viability ([6]; first compound 0.02 µM): 0.299
- relative viability ([7]; first compound 0.0002 µM): 0.411
- relative viability ([7]; first compound 0.000632 µM): 0.35
- relative viability ([7]; first compound 0.002 µM): 0.255
- relative viability ([7]; first compound 0.006325 µM): 0.142
- relative viability ([7]; first compound 0.02 µM): 0.12
- relative viability ([8]; first compound 0.0002 µM): 1.08
- relative viability ([8]; first compound 0.000632 µM): 1.13
- relative viability ([8]; first compound 0.002 µM): 1.2
- relative viability ([8]; first compound 0.006325 µM): 0.748
- relative viability ([8]; first compound 0.02 µM): 0.67
- relative viability ([9]; first compound 0.0002 µM): 0.389
- relative viability ([9]; first compound 0.000632 µM): 0.326
- relative viability ([9]; first compound 0.002 µM): 0.262
- relative viability ([9]; first compound 0.006325 µM): 0.2
- relative viability ([9]; first compound 0.02 µM): 0.171
- relative viability ([10]; first compound 0.0002 µM): 0.466
- relative viability ([10]; first compound 0.002 µM): 0.101
- relative viability ([10]; first compound 0.006325 µM): 0.0951
- relative viability ([10]; first compound 0.02 µM): 0.0577
- relative viability ([11]; first compound 0.0002 µM): 0.364
- relative viability ([11]; first compound 0.000632 µM): 0.187
- relative viability ([11]; first compound 0.002 µM): 0.116
- relative viability ([11]; first compound 0.006325 µM): 0.104
- relative viability ([11]; first compound 0.02 µM): 0.0624
- relative viability ([12]; first compound 0.0002 µM): 0.54
- relative viability ([12]; first compound 0.000632 µM): 0.499
- relative viability ([12]; first compound 0.002 µM): 0.226
- relative viability ([12]; first compound 0.006325 µM): 0.196
- relative viability ([12]; first compound 0.02 µM): 0.162
- relative viability ([13]; first compound 0.0002 µM): 0.604
- relative viability ([13]; first compound 0.000632 µM): 0.538
- relative viability ([13]; first compound 0.002 µM): 0.423
- relative viability ([13]; first compound 0.006325 µM): 0.223
- relative viability ([13]; first compound 0.02 µM): 0.172
- relative viability ([14]; first compound 0.0002 µM): 0.41
- relative viability ([14]; first compound 0.000632 µM): 0.582
- relative viability ([14]; first compound 0.002 µM): 0.463
- relative viability ([14]; first compound 0.006325 µM): 0.159
- relative viability ([15]; first compound 0.0002 µM): 0.472
- relative viability ([15]; first compound 0.000632 µM): 0.275
- relative viability ([15]; first compound 0.002 µM): 0.209
- relative viability ([15]; first compound 0.006325 µM): 0.227
- relative viability ([15]; first compound 0.02 µM): 0.152
- relative viability ([16]; first compound 0.0002 µM): 0.639
- relative viability ([16]; first compound 0.000632 µM): 0.46
- relative viability ([16]; first compound 0.002 µM): 0.393
- relative viability ([16]; first compound 0.006325 µM): 0.307
- relative viability ([16]; first compound 0.02 µM): 0.144
- relative viability ([17]; first compound 0.0002 µM): 0.785
- relative viability ([17]; first compound 0.000632 µM): 0.826
- relative viability ([17]; first compound 0.002 µM): 0.629
- relative viability ([17]; first compound 0.006325 µM): 0.345
- relative viability ([17]; first compound 0.02 µM): 0.346
- relative viability ([18]; first compound 0.0002 µM): 0.663
- relative viability ([18]; first compound 0.000632 µM): 0.203
- relative viability ([18]; first compound 0.002 µM): 0.139
- relative viability ([18]; first compound 0.006325 µM): 0.115
- relative viability ([18]; first compound 0.02 µM): 0.103
- relative viability ([19]; first compound 0.0002 µM): 1.13
- relative viability ([19]; first compound 0.000632 µM): 0.884
- relative viability ([19]; first compound 0.002 µM): 0.44
- relative viability ([19]; first compound 0.006325 µM): 0.435
- relative viability ([19]; first compound 0.02 µM): 0.338
- relative viability ([20]; first compound 0.0002 µM): 0.824
- relative viability ([20]; first compound 0.000632 µM): 0.822
- relative viability ([20]; first compound 0.002 µM): 0.621
- relative viability ([20]; first compound 0.006325 µM): 0.36
- relative viability ([20]; first compound 0.02 µM): 0.27
- relative viability ([21]; first compound 0.0002 µM): 0.713
- relative viability ([21]; first compound 0.000632 µM): 0.53
- relative viability ([21]; first compound 0.002 µM): 0.223
- relative viability ([21]; first compound 0.006325 µM): 0.219
- relative viability ([21]; first compound 0.02 µM): 0.165
- relative viability ([22]; first compound 0.0002 µM): 0.885
- relative viability ([22]; first compound 0.000632 µM): 0.932
- relative viability ([22]; first compound 0.002 µM): 0.516
- relative viability ([22]; first compound 0.006325 µM): 0.478
- relative viability ([22]; first compound 0.02 µM): 0.291
